The results in this text go back to publication PMC10648927, “Examining the activity of cefepime-taniborbactam against Burkholderia cepacia complex and Burkholderia gladioli isolated from cystic fibrosis patients in the United States” (Antimicrobial Agents and Chemotherapy, 2023).

Parameters in all cases: agar dilution MIC, growth inhibition of clinical Burkholderia isolates
For orientation: In agar dilution, organisms are placed on agar that contains the substance at set levels.

The subject of one test is T1, B. cenocepacia AU20545.
T1 construct: AU20545
In words: microbe, parasite or virus in culture. Conditions: Burkholderia cenocepacia, AU20545. A digest of the protocol:
(§1)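 MICs by agar dilution against Bcc and B. gladioli clinical isolates, interpreted with CLSI breakpoints where available; K. pneumoniae ATCC 700603 (SHV-18) and ATCC BAA-1705 (KPC) served as quality controls.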

For the next test, the system named is T2, B. ambifaria AU19862.
T2 construct: AU19862
In words: microbe, parasite or virus in culture. To be noted: Burkholderia ambifaria, AU19862. Summed up:
as §1

The test system of the next test is T3, B. gladioli AU27927.
T3 construct: AU27927
Description: organism not typed. A digest of the protocol:
as §1

The subject of a further test is T4, B. cenocepacia AU9215.
T4 construct: AU9215
In words: microbe, parasite or virus in culture. Conditions: Burkholderia cenocepacia, AU9215. A digest of the protocol:
as §1

In the next test the test system is T5, B. cenocepacia AU3663.
T5 construct: AU3663
Description: microbe, parasite or virus in culture. To be noted: Burkholderia cenocepacia, AU3663. Summed up:
as §1

The next test relates to T6, B. stabilis AU9035.
T6 construct: AU9035
In words: microbe, parasite or virus in culture. Conditions: Burkholderia stabilis, AU9035. Summed up:
as §1

The subject of the next test is T7, B. cenocepacia AU12659.
T7 construct: AU12659
Description: microbe, parasite or virus in culture. To be noted: Burkholderia cenocepacia, AU12659. Summed up:
as §1

The subject of a further test is T8, B. cenocepacia AU22509.
T8 construct: AU22509
In words: microbe, parasite or virus in culture. To be noted: Burkholderia cenocepacia, AU22509. Summed up: as §1

The next test concerns T9, B. cepacia AU11420.
T9 construct: AU11420
Description: microbe, parasite or virus in culture. Conditions: Burkholderia cepacia, AU11420. A digest of the protocol: as §1

The next test deals with T10, B. ambifaria AU11161.
T10 construct: AU11161
Description: microbe, parasite or virus in culture. Conditions: Burkholderia ambifaria, AU11161. A digest of the protocol: as §1

Test [1] has as its system T11, Burkholderia cepacia complex Bcc Indeterminate AU12848.
T11 construct: AU12848
In words: microbe, parasite or virus in culture. Conditions: Burkholderia cepacia. Summed up: as §1

The test system of another test is T12, B. multivorans AU4507.
T12 construct: AU4507
Description: microbe, parasite or virus in culture. Conditions: Burkholderia multivorans, AU4507. Summed up: as §1

The next test deals with T13, B. vietnamiensis AU3578.
T13 construct: AU3578
Description: microbe, parasite or virus in culture. Conditions: Burkholderia vietnamiensis, AU3578. A digest of the protocol: as §1

In another test the test system is T14, B. multivorans AU11772.
T14 construct: AU11772
In words: microbe, parasite or virus in culture. To be noted: Burkholderia multivorans, AU11772. A digest of the protocol:
as §1

The next test deals with T15, B. multivorans AU23919.
T15 construct: AU23919
Description: microbe, parasite or virus in culture. Conditions: Burkholderia multivorans, AU23919. Summed up: as §1

The subject of another test is T16, B. gladioli AU28659.
T16 construct: AU28659
Description: organism not typed. Summed up:
as §1

Another test relates to T17, B. gladioli AU0032.
T17 construct: AU0032
In words: organism not typed. A digest of the protocol:
as §1

For the next test, the system named is T18, B. cenocepacia AU0133.
T18 construct: AU0133
In words: microbe, parasite or virus in culture. Conditions: Burkholderia cenocepacia, AU0133. Summed up:
as §1

A further test relates to T19, B. cenocepacia AU9710.
T19 construct: AU9710
Description: microbe, parasite or virus in culture. Conditions: Burkholderia cenocepacia, AU9710. A digest of the protocol: as §1

In a further test the test system is T20, B. seminalis AU14842.
T20 construct: AU14842
In words: organism not typed. A digest of the protocol:
as §1

For another test, the system named is T21, B. multivorans AU12481.
T21 construct: AU12481
In words: microbe, parasite or virus in culture. To be noted: Burkholderia multivorans, AU12481. Summed up: as §1

The next test deals with T22, B. cenocepacia AU19684.
T22 construct: AU19684
Description: microbe, parasite or virus in culture. Conditions: Burkholderia cenocepacia, AU19684. A digest of the protocol:
as §1

Values after ≈ are worked out from the molar mass of the structure shown.

For the compound `CO/N=C(\C(=O)N[C@@H]1C(=O)N2C(C(=O)[O-])=C(C[N+]3(C)CCCC3)CS[C@H]12)c1csc(N)n1` [cefepime], the MIC is 8 µg/mL (≈ 16.6 µM) in the test with B. cenocepacia AU20545; 16 µg/mL (≈ 33.3 µM) against B. ambifaria AU19862; 8 µg/mL (≈ 16.6 µM) in the test with B. gladioli AU27927; more than 32 µg/mL in the test with B. cenocepacia AU9215; 32 µg/mL (≈ 66.6 µM) against B. cenocepacia AU3663; 32 µg/mL (≈ 66.6 µM) in the test with B. stabilis AU9035. Moreover, the MIC in the test on B. cenocepacia AU12659 is 16 µg/mL (≈ 33.3 µM); against B. cenocepacia AU22509 it was more than 32 µg/mL; in the test with B. cepacia AU11420 it was more than 32 µg/mL; in the test on B. ambifaria AU11161 it was more than 32 µg/mL; in test [1], more than 32 µg/mL; with B. multivorans AU4507, 8 µg/mL (≈ 16.6 µM). For the same compound, the MIC in the test on B. vietnamiensis AU3578 is more than 32 µg/mL; with B. multivorans AU11772, more than 32 µg/mL; with B. multivorans AU23919, 32 µg/mL (≈ 66.6 µM); in the test with B. gladioli AU28659, 32 µg/mL (≈ 66.6 µM); in the test with B. gladioli AU0032, more than 32 µg/mL; in the test on B. cenocepacia AU0133 it was 16 µg/mL (≈ 33.3 µM). The MIC in the test on B. cenocepacia AU9710 was 16 µg/mL (≈ 33.3 µM); in the test with B. seminalis AU14842, 16 µg/mL (≈ 33.3 µM); against B. multivorans AU12481, 2 µg/mL (≈ 4.16 µM); in the test on B. cenocepacia AU19684, more than 32 µg/mL.

With `C[C@H]1COc2c(N3CCN(C)CC3)c(F)cc3c(=O)c(C(=O)O)cn1c23` [levofloxacin], the MIC with B. cenocepacia AU20545 is 2 µg/mL (≈ 5.53 µM); against B. ambifaria AU19862, 8 µg/mL (≈ 22.1 µM); in the test with B. gladioli AU27927 it was 1 µg/mL (≈ 2.77 µM); against B. cenocepacia AU9215, 32 µg/mL (≈ 88.6 µM); against B. cenocepacia AU3663, 16 µg/mL (≈ 44.3 µM); in the test with B. stabilis AU9035 it was 16 µg/mL (≈ 44.3 µM). Moreover, the MIC against B. cenocepacia AU12659 is 1 µg/mL (≈ 2.77 µM); against B. cenocepacia AU22509 it was 32 µg/mL (≈ 88.6 µM); in the test on B. cepacia AU11420, 4 µg/mL (≈ 11.1 µM); against B. ambifaria AU11161, 32 µg/mL (≈ 88.6 µM); in test [1] it was 8 µg/mL (≈ 22.1 µM); against B. multivorans AU4507, 8 µg/mL (≈ 22.1 µM). In addition, the MIC amounted to 8 µg/mL (≈ 22.1 µM) against B. vietnamiensis AU3578; 8 µg/mL (≈ 22.1 µM) in the test on B. multivorans AU11772; 2 µg/mL (≈ 5.53 µM) in the test with B. multivorans AU23919; 2 µg/mL (≈ 5.53 µM) against B. gladioli AU28659; 8 µg/mL (≈ 22.1 µM) in the test with B. gladioli AU0032; 4 µg/mL (≈ 11.1 µM) against B. cenocepacia AU0133. Moreover, the MIC against B. cenocepacia AU9710 was 4 µg/mL (≈ 11.1 µM); with B. seminalis AU14842, 4 µg/mL (≈ 11.1 µM); with B. multivorans AU12481, 4 µg/mL (≈ 11.1 µM); against B. cenocepacia AU19684, more than 32 µg/mL.

Turning to `C[C@@H](O)[C@H]1C(=O)N2C(C(=O)O)=C(S[C@@H]3CN[C@H](C(=O)N(C)C)C3)[C@H](C)[C@H]12` [meropenem], the MIC against B. cenocepacia AU20545 worked out at 2 µg/mL (≈ 5.22 µM); against B. ambifaria AU19862 it was 2 µg/mL (≈ 5.22 µM); in the test with B. gladioli AU27927, 1 µg/mL (≈ 2.61 µM); against B. cenocepacia AU9215, 16 µg/mL (≈ 41.7 µM); against B. cenocepacia AU3663 it was 4 µg/mL (≈ 10.4 µM); against B. stabilis AU9035, 8 µg/mL (≈ 20.9 µM). For the same compound, the MIC was determined as 4 µg/mL (≈ 10.4 µM) with B. cenocepacia AU12659; 8 µg/mL (≈ 20.9 µM) in the test with B. cenocepacia AU22509; 8 µg/mL (≈ 20.9 µM) in the test on B. cepacia AU11420; 8 µg/mL (≈ 20.9 µM) against B. ambifaria AU11161; 8 µg/mL (≈ 20.9 µM) in [1]; 8 µg/mL (≈ 20.9 µM) with B. multivorans AU4507. Besides, the MIC was 4 µg/mL (≈ 10.4 µM) against B. vietnamiensis AU3578; 16 µg/mL (≈ 41.7 µM) in the test with B. multivorans AU11772; 4 µg/mL (≈ 10.4 µM) in the test on B. multivorans AU23919; 2 µg/mL (≈ 5.22 µM) with B. gladioli AU28659; 2 µg/mL (≈ 5.22 µM) against B. gladioli AU0032; 4 µg/mL (≈ 10.4 µM) against B. cenocepacia AU0133. For the same compound, the MIC against B. cenocepacia AU9710 was found to be 4 µg/mL (≈ 10.4 µM); in the test on B. seminalis AU14842, 4 µg/mL (≈ 10.4 µM); in the test with B. multivorans AU12481, 2 µg/mL (≈ 5.22 µM); in the test on B. cenocepacia AU19684 it was 8 µg/mL (≈ 20.9 µM).
